Converted amounts (≈) assume the structure as drawn. Structures can show the parent of a compound that is named as a salt. Where two headings read alike, the source gives them in different places.
Assays:
C. difficile = assay: agar dilution MIC assay of anaerobic bacteria; type: cell-based, Clostridium difficile
Protocol: (§1) Each compound was assayed against a panel of anaerobic bacteria in culture, consisting of Gram-positive organisms, such as Lactobacilli, Bifidobacteria, Clostridium spp., and Gram-negative bacteria, such as […] fragilis spp., according to guidelines of the Clinical and Laboratory Standards Institute (CLSI document M11-A7, CLSI, Wayne, Pa., 2007). […] One tenth mL of diluted bacteria containing 500-1000 colony-forming units (CFU) was plated and spread, and the plates incubated at 37° C. for 24-48 hours. MIC (minimum inhibitory concentration) is equivalent to the lowest concentration in μg/ml at which growth, i.e., colony formation, is not observed. […] Bacteria were assayed using a reference agar dilution method. Drug dilutions and drug-supplemented agar plates were prepared manually. The test organisms were maintained frozen at −80° C. The isolates were sub-cultured on Supplemented Brucella Agar (SBA) plates in a Bactron II anaerobic chamber and incubated for 48 hours at 35-36° C. in the Bactron II anaerobe chamber. Following inoculation, the drug-supplemented plates were incubated at 35° C. for 48 hours in the anaerobic environment (5% hydrogen, 5% carbon dioxide, 90% nitrogen) of the Bactron II. The MIC in μg/ml was read per Clinical and Laboratory Standards Institute guidelines.

Ba. fragilis = assay: agar dilution MIC assay of anaerobic bacteria; type: cell-based; conditions: Bacteroides fragilis, B. fragilis, Micromyx Number 0123 (ATCC strain), Table 2
Protocol: as §1

C. diff. (ATCC43255) = assay: clindamycin-induced C. diff. infection model in Syrian golden hamsters; type: in vivo; conditions: 50 mg/kg PO bid for 3 days, n = 6 hamsters
Description: Compound 359E was given orally as a suspension in 1% carboxymethylcellulose to Syrian Golden hamsters, pretreated subcutaneously with clindamycin and infected orally with C. diff. (ATCC43255) as described in Table 5.

[1] = C. diff. Strain no. 18285, Table 4
[2] = C. diff. Strain no. 19265, Table 4
[3] = C. diff. Strain no. 19273, Table 4
[4] = C. diff. Strain no. 19281, Table 4
[5] = C. diff. Strain no. 19291, Table 4
[6] = C. diff. Strain no. 19369, Table 4
[7] = C. diff. Strain no. 19382, Table 4
[8] = C. diff. Strain no. 19540, Table 4
[9] = C. diff. Strain no. 19580, Table 4
[10] = C. diff. Strain no. 19680, Table 4
[11] = C. diff. Strain no. 19681, Table 4
[12] = C. diff. Strain no. 19683, Table 4
[13] = C. diff. Strain no. 19687, Table 4
[14] = C. diff. Strain no. 20066, Table 4
[15] = C. diff. Strain no. 20152, Table 4
[16] = C. diff. Strain no. 20307, Table 4
[17] = C. diff. Strain no. 20494, Table 4
[18] = C. diff. Strain no. 20680, Table 4
[19] = C. diff. Strain no. 20934, Table 4
[20] = C. diff. Strain no. 21099, Table 4

MIC (C. difficile; [1]) [mg/L] | MIC (C. difficile; [2]) [mg/L] | MIC (C. difficile; [3]) [mg/L] | MIC (C. difficile; [4]) [mg/L] | MIC (C. difficile; [5]) [mg/L] | MIC (C. difficile; [6]) [mg/L] | MIC (C. difficile; [7]) [mg/L] | MIC (C. difficile; [8]) [mg/L] | MIC (C. difficile; [9]) [mg/L] | MIC (C. difficile; [10]) [mg/L] | MIC (C. difficile; [11]) [mg/L] | MIC (C. difficile; [12]) [mg/L] | MIC (C. difficile; [13]) [mg/L] | MIC (C. difficile; [14]) [mg/L] | MIC (C. difficile; [15]) [mg/L] | MIC (C. difficile; [16]) [mg/L] | MIC (C. difficile; [17]) [mg/L] | MIC (C. difficile; [18]) [mg/L] | MIC (C. difficile; [19]) [mg/L] | MIC (C. difficile; [20]) [mg/L] | Structure (SMILES) | also measured
– | – | – | – | – | – | – | – | – | – | – | – | – | – | – | – | – | – | – | – | CCOCCn1cnc2nc(NCc3ccc(Cl)c(Cl)c3)[nH]c(=O)c21 [Compound 325E] | MIC (C. difficile; Clostridioides difficile, C. diff., Micromyx Number 3579, Table 2, read-out: MIC): 2 mg/L (≈ 5.23 µM); MIC (C. difficile; Clostridioides difficile, C. diff., Micromyx Number 3580, Table 2, read-out: MIC): 2 mg/L (≈ 5.23 µM); MIC (C. difficile; Clostridioides difficile, C. diff., Micromyx Number 3581, Table 2, read-out: MIC): 1 mg/L (≈ 2.62 µM); MIC (C. difficile; Clostridioides difficile, C. diff., Micromyx Number 3582 (ATCC strain), Table 2, read-out: MIC): 2 mg/L (≈ 5.23 µM); MIC (Ba. fragilis): > 32 mg/L
4 (≈ 9.45 µM) | 2 (≈ 4.72 µM) | 4 (≈ 9.45 µM) | 2 (≈ 4.72 µM) | 2 (≈ 4.72 µM) | 8 (≈ 18.9 µM) | 2 (≈ 4.72 µM) | 2 (≈ 4.72 µM) | 2 (≈ 4.72 µM) | 2 (≈ 4.72 µM) | 2 (≈ 4.72 µM) | 4 (≈ 9.45 µM) | 4 (≈ 9.45 µM) | 4 (≈ 9.45 µM) | 8 (≈ 18.9 µM) | 2 (≈ 4.72 µM) | 2 (≈ 4.72 µM) | 2 (≈ 4.72 µM) | 1 (≈ 2.36 µM) | 2 (≈ 4.72 µM) | O=c1[nH]c(NCc2ccc(Cl)c(Cl)c2)nc2ncn(CCN3CCOCC3)c12 [Compound 362E] | activity against C. diff. strains compared with 359E (in words) (C. difficile; summary of Table 4): preferred activity against C. diff. strains
8 (≈ 18.3 µM) | 8 (≈ 18.3 µM) | 4 (≈ 9.15 µM) | 8 (≈ 18.3 µM) | 4 (≈ 9.15 µM) | 8 (≈ 18.3 µM) | 2 (≈ 4.57 µM) | 4 (≈ 9.15 µM) | 2 (≈ 4.57 µM) | 8 (≈ 18.3 µM) | 4 (≈ 9.15 µM) | 8 (≈ 18.3 µM) | 8 (≈ 18.3 µM) | 8 (≈ 18.3 µM) | 8 (≈ 18.3 µM) | 2 (≈ 4.57 µM) | 8 (≈ 18.3 µM) | 8 (≈ 18.3 µM) | 2 (≈ 4.57 µM) | 8 (≈ 18.3 µM) | O=c1[nH]c(NCc2ccc(Cl)c(Cl)c2)nc2ncn(CCCN3CCOCC3)c12 [Compound 363A] | –
– | – | – | – | – | – | – | – | – | – | – | – | – | – | – | – | – | – | – | – | CN[C@H](CC(C)C)C(=O)N[C@H]1C(=O)N[C@@H](CC(N)=O)C(=O)N[C@H]2C(=O)N[C@H]3C(=O)N[C@H](C(=O)N[C@H](C(=O)O)c4cc(O)cc(O)c4-c4cc3ccc4O)[C@H](O)c3ccc(c(Cl)c3)Oc3cc2cc(c3O[C@@H]2O[C@H](CO)[C@@H](O)[C@H](O)[C@H]2O[C@H]2C[C@](C)(N)[C@H](O)[C@H](C)O2)Oc2ccc(cc2Cl)[C@H]1O [vancomycin HCl, reference compound] | % Survivors at 120 hr (C. diff. (ATCC43255)): 100%; Survivors at 24 hr (C. diff. (ATCC43255)): 6; Survivors at 48 hr (C. diff. (ATCC43255)): 6; Survivors at 66 hr (C. diff. (ATCC43255)): 6; Survivors at 72 hr (C. diff. (ATCC43255)): 6; Survivors at 96 hr (C. diff. (ATCC43255)): 6

From patent publication US8796292B2, “Selective antibacterials for clostridium difficile infections” (GLSynthesis Inc., priority 2009, dated 2014)
